Legend:
BJ cells [1] = assay: Reprogramming of BJ human fibroblasts into iPSC-like clones; format: cell-based; conditions: SB431542 5 μM, PD0325901 0.2 μM, Thiazovivin 0.5 μM together, day 7 to 14
Method: Using a reprogramming protocol described elsewhere (Driscoll et al., Stem Cell Research and Therapy 6:48 (2015)), an iPSC-like clone with MV(OCT4)P-ΔH(KLF4) (GFP)H or MV(T) vector in combination with 2 LV encoding SOX2 and cMYC was obtained. The clone obtained with vector MV(T) was analyzed for pluripotency markers (FIGS. 2B and C), for its ability to spontaneously differentiate into the three germ lineages after EB formation (not shown), and its ability to differentiate into contracting cardiomyocytes through guided cardiac differentiation (FIG. 2D).
To increase transduction efficiency the spinoculation technique was established. To reduce MV-induced toxicity, the MOI of transduction was decreased. BJ cells, a neonatal foreskin human cells were purchased from the American Type Culture Collection (ATCC #CRL 2522), and were transduced with the 4F vector at a MOI of 1 instead of 6 as described elsewhere (Driscoll et al., Stem Cell Research and Therapy 6:48 (2015)). In order to induce TLR3 activation during MV reprogramming, the transduction was performed in presence of polyI:C (a TLR3 activator). Transduced cells were subjected or not to spinoculation at 1000 rpm for 1 hour at room temperature. The culture supernatants were replaced with BJ media every three days. […] The cells were monitored until reprogrammed cells form small colonies with iPSC morphology (one to two weeks after vector transduction). […] The most efficient MOI for each vector was determined.
The ability of the MV(OCT4) mir375 to reprogram BJ cells in presence of 3LV expressing SOX2, KLF4, and cMYC was analyzed, and its efficiency was compared to MV(OCT4) and 4LV. […] Using light and fluorescence microscopy, early phases of iPSC-like clone development with MV(OCT4)miR375 were observed (15 days post transduction, FIG. 6B). […] The expression of the N mRNA in the early passages of four iPSC-like clones derived from MV(OCT4)miR375 was analyzed. […] RNA was collected at each passage and RT-PCR for N and P mRNA was analyzed. […]
The ability of the 4F* to reprogram BJ cells was analyzed. […]

BJ cells [2] = assay: Transduction efficiency by GFP expression (microscopy, flow cytometry); format: cell-based, human; conditions: added at transduction with MV vector, 48 hours
Source text: To increase transduction efficiency the spinoculation technique was established. To reduce MV-induced toxicity, the MOI of transduction was decreased. BJ cells, a neonatal foreskin human cells were purchased from the American Type Culture Collection (ATCC #CRL 2522), and were transduced with the 4F vector at a MOI of 1 instead of 6 as described elsewhere (Driscoll et al., Stem Cell Research and Therapy 6:48 (2015)). In order to induce TLR3 activation during MV reprogramming, the transduction was performed in presence of polyI:C (a TLR3 activator). Transduced cells were subjected or not to spinoculation at 1000 rpm for 1 hour at room temperature. The culture supernatants were replaced with BJ media every three days. After 9 days, optimized serum-free/feeder-free iPSC medium was added and replaced daily. The cells were monitored until reprogrammed cells form small colonies with iPSC morphology (one to two weeks after vector transduction). Pictures were taken at different stages. iPS-like clones were picked after three to four weeks, and plated at 1 colony/well in Matrigel-coated wells for further expansion. […] The most efficient MOI for each vector was determined.
Transduction efficacy of the vectors was tested at different MOI using light microscopy and flow cytometry and testing for GFP expression. BJ cells were transduced with 4F* at a MOI of 0.5 or 0.25. […]

| Compound | effect of added small molecules on reprogramming efficiency of MV four factor vectors (BJ cells [1]) | effect on expression of measles proteins (GFP) (BJ cells [2]) |
| --- | --- | --- |
| O=C(NOC[C@H](O)CO)c1ccc(F)c(F)c1Nc1ccc(I)cc1F [PD0325901] | improved efficiency |  |
| polyI:C |  | does not affect the expression of measles proteins |
| NC(=O)c1ccc(-c2nc(-c3ccc4c(c3)OCO4)c(-c3ccccn3)[nH]2)cc1 [SB431542] | improved efficiency |  |
| O=C(NCc1ccccc1)c1csc(Nc2ccncn2)n1 [Thiazovivin] | improved efficiency |  |

From patent publication US20260132420A1, “VIRAL VECTORS FOR NUCLEAR REPROGRAMMING” (Mayor Foundation for Medical Education and Research, priority 2016, published 2026)
